Measured values as given in patent US12514836B2, “Composition for prevention and treatment of myopathy” (ONCOCROSS CO., LTD., priority 2020, dated 2026).

What was measured:
MHC and myogenin = assay: Western blot of myoblast differentiation markers in C2C12 cells; format: cell-based, mouse; conditions: 500 μM H2O2, vs DMSO group, FIG. 4
Description: (§1) At this time, 500 μM of H2O2 (hydrogen peroxide) was treated with the differentiation medium to create conditions for inhibiting differentiation. Thereafter, the differentiation medium containing H2O2 and the drugs were exchanged every 2 days. After 4 to 6 days, when the shape of myotubes was confirmed, the myotubes were added with 80 μl of a lysis buffer and then vortexed, and centrifuged for 10 minutes at 14000 rpm, and the obtained proteins were added with a 5× sample buffer and reacted in 95° C. boiling water for 5 minutes. 8 μg of the reacted proteins was loaded on 8% and 12% SDS-PAGE gels, developed, and then transferred to a membrane. The membrane was blocked with PBST containing 5% skim milk at room temperature for 1 hour. The membrane was washed with 1×PBST, added with a primary antibody diluted at 1:1000, and then O/N reacted at 4° C. The next day, the membrane was washed with 1×PBST three times every 10 minutes, added with a secondary antibody diluted at 1:5000 in PBST containing 5% skim milk, and then reacted at room temperature for 1 hour. The membrane was washed with 1×PBST three times every 10 minutes, reacted in an enhanced chemiluminescent solution (ECL), and then exposed to an X-ray film to obtain a Western blot analysis result.

SOD1 G93A mice = assay: Duration of life of Lou Gehrig (ALS) animal model mice; format: in vivo, mouse
From the text: The presence of symptoms and mortality were confirmed through a daily behavioral test set.

C2C12 cells = assay: Myoblast differentiation of C2C12 cells seen by microscope under differentiation-suppressing condition (H2O2); format: cell-based, mouse; conditions: 10 μM, 500 μM H2O2, FIG. 3
[1] = test system: MSCs derived from MDX mice; assay: Proliferation of muscle satellite cells (MSCs) derived from MDX mice; format: cell-based, mouse; conditions: 100 μM, 48 hours, vs PBS control, FIG. 6
From the text: In MDX mice (Jackso lab, stock no. 001801) (including point mutations in a DMD gene), as the most popular experimental model for testing Duchenne muscular dystrophy, older MDX mice over 40 weeks of age that maintained a homogenous transgenic state through mating and breeding and wild-type mice (normal mice) were anesthetized with isoflurane and then both tibialis anterior (TA) muscles were punctured 30 times each with a 26 G syringe (Korea Vaccine, Cat no. 27-00024-01) to induce physical muscle destruction. On day 3 after inducing muscle destruction, the mice were sacrificed and the TA muscles were separated, washed with 1×PBS (137 mM NaCl, 2.7 mM KCl, 10 mM Na2HPO4, […]) twice, and then chopped for 5 minutes with a razor blade, added in serum-free DMEM (GE healthcare, Cat no. SH30243.01) diluted with collagenase II (ThermoFisher, Cat no. 17101015) to a concentration of 2 mg/ml and digested for 1 hour. Thereafter, a supernatant was removed by centrifugation at 300×g for 5 minutes, washed once with serum-free DMEM, and passed through a 70 μm strainer. […] In the experiment, the average and each standard deviation of measurement results of three or more times were obtained, and significance with the control was determined through T testing (*: […].<0.001).

p70S6K = assay: Western blot of AKT/mTOR pathway sub-signal p70S6K in C2C12 cells; format: cell-based, mouse; conditions: 10 μM, 500 μM H2O2, FIG. 4
Description: as §1

4-EBP = assay: Western blot of AKT/mTOR pathway sub-signal 4-EBP in C2C12 cells; format: cell-based, mouse; conditions: 10 μM, 500 μM H2O2, FIG. 4
Description: as §1

| SMILES | expression levels of MHC and myogenin (MHC and myogenin; 5 μM) | expression levels of MHC and myogenin (MHC and myogenin; 10 μM) | total median duration of life compared to the drug non-administered group (SOD1 G93A mice; 30 mpk (combination each 30 mpk), intraperitoneally from 10 weeks old, FIG. 1) | prolongation of median duration of life after the appearance of Lou Gehrig's symptoms (SOD1 G93A mice; 30 mpk intraperitoneally from 10 weeks old, non-administered group about 5 weeks, FIG. 2) | prolongation of duration of life converted to Lou Gehrig's patients (SOD1 G93A mice; extrapolated: 5 weeks in mice taken as about 2 years median duration of life in patients) | myoblast differentiation (C2C12 cells) | proliferation of MSCs derived from MDX mice [1] | expression of P70S6K (p70S6K) | expression of 4-EBP compared to the control group (DMSO) (4-EBP) |
| --- | --- | --- | --- | --- | --- | --- | --- | --- | --- |
| CN(C)CCOC(c1ccccc1)c1ccccc1.Cn1c(=O)c2[nH]c(Cl)nc2n(C)c1=O [OC-501, dimenhydrinate] | increased | increased | – | – | – | – | – | – | – |
| CC(C)(CO)[C@@H](O)C(=O)NCCC(=O)O [OC-504, calcium pantothenate] | – | increased | increased statistically significantly | about 2 weeks | about 9.6 months | significantly increased | significantly promoted | increased | increased |
